Measured values reported in US11155586B2, “Cystine knot scaffold platform” (Genentech, Inc., priority 2015, dated 2021).
Values after ≈ are worked out from the molar mass of the structure shown. No end group written: not given here.

Key:
hVEGF-A (8-109) = molecular target: T1, hVEGF-A (8-109) (Homo sapiens, UniProt P15692); experiment: SPR binding assay (BIACORE 3000, 37° C.); details: SPR affinity (Table 37) and cellular IC50 (Table 38), vs variant without F8Y
T1 sequence (P15692 34-135 isoform P15692-4): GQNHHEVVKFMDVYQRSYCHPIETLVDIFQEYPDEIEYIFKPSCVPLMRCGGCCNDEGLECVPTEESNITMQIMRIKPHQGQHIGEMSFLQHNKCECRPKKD
Experimental: Depending on the format of the assay either a streptavidin sensor (SA) or a dextran-coated (CM5) sensor was utilized as described below.
For use with the SA sensor, VEGF-A was first biotinylated (no more than 2 biotin/VEGF-A) by incubating the protein with EZ-link NHS-PEG4-Biotin (Pierce) in a 1:1.5 molar ratio respectively, in PBS for 2 hours on ice. Reaction was then quenched by addition of 10 molar excess of Glycine pH 8.0 and the sample was buffer exchanged into PBS using an Amicon 0.5 mL 3000 MWCO ultra-centrifugal filters (EMD Millipore). The biotinylation state of the protein was verified by LC-MS analysis. Biotinylated VEGF-A was then captured on the surface until a resonance unit (RU) signal of about ˜400. For immobilization of VEGF-A on CM5 sensor, the surface was first activated with a mixture of N-ethyl-N′-(3-dimethylaminopropyl)carbodiimide hydrochloride and N-hydroxysuccinimide (EDC/NHS) according to the supplier instructions. VEGF-A was then diluted into coupling buffer (0.1 M Acetate Buffer, pH 5.0) and injected until the signal reached about ˜400 RU followed by a wash with 1 M ethanolamine pH 8.0 to quench remaining activated sites.
Following the capture step, a series of the peptide concentrations were prepared in HBS-EP buffer with matching DMSO concentrations to 0.1% and injected at a flow rate of […]. The resulting sensorgrams were then analyzed using a 1:1 binding model to obtain kinetic data and affinities using Scrubber 2.0 (BioLogic Software).

Solubility = format: physicochemical; details: vs variant without F8Y; read-out: improvement of solubility by F8Y substitution
Excerpt: In variants derived from VEGF_CKP9.54 (such as the variants in Table 35) the amino acid at position 8 is Phe. Therefore, we sought to mutate Phe8 to Tyr I in some of the variants in Table 35, with the goal of improving affinity and/or solubility of the resulting F8Y variant. […] See Table 37, in which the binding affinities of certain variants (as determined by surface plasmon resonance) are compared, and Table 38 in which the potencies of certain variants (as determined by cellular IC50) are compared. […] VEGF_CKP9.54.90.67.F8Y was selected for further follow-up studies.

[1] = molecular target: Wnt1 signaling (Homo sapiens); experiment: Wnt luciferase reporter assay in HEK293 cells, Wnt1; format: cell-based
Chain of Wnt1 signaling (Homo sapiens) (O75581 20-1613): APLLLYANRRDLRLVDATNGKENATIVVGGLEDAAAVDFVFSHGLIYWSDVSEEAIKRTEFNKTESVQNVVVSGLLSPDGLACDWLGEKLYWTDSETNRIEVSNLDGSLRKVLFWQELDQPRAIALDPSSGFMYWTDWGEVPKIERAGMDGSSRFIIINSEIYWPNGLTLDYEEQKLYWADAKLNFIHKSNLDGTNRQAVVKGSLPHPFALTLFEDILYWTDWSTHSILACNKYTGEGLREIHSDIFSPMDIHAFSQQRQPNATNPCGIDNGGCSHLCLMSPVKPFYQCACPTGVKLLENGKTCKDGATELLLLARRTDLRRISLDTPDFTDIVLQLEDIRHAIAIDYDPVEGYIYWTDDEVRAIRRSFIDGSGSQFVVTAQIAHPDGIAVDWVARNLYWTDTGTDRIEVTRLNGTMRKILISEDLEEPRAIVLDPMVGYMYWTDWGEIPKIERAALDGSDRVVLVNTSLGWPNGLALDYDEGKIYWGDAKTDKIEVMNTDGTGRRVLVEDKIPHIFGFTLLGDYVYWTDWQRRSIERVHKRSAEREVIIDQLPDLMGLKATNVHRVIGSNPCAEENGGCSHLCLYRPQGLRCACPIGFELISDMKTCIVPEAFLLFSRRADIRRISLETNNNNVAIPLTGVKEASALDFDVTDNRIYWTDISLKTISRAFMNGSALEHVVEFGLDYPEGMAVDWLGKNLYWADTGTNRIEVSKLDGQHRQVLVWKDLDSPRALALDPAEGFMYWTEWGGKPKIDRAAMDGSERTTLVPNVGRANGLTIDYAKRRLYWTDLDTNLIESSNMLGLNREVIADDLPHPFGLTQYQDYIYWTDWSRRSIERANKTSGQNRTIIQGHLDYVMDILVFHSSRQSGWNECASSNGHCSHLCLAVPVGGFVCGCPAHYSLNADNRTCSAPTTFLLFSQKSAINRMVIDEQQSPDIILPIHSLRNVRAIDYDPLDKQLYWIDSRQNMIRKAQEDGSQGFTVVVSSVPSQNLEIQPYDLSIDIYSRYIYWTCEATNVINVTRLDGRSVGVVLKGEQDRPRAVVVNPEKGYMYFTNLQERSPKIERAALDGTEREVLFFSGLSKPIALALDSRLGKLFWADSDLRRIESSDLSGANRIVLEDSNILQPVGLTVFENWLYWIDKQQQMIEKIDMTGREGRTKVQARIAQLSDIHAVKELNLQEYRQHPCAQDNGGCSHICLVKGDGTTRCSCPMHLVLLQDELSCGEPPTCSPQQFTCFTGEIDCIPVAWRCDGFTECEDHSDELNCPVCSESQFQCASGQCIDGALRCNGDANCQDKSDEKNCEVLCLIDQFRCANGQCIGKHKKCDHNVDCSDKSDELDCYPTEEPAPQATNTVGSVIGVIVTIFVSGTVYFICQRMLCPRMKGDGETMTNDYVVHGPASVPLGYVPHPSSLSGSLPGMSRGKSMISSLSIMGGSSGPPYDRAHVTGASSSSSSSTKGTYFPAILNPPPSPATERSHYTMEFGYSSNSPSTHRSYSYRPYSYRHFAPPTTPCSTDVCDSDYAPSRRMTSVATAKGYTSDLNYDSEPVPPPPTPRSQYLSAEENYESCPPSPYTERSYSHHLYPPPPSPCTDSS
Experimental: HEK293 cells stably transfected with a firefly luciferase Wnt reporter (Gong et al. (2010) PLoS ONE 59: e12682). and pRL-SV40 Renilla luciferase (Promega) were grown to 90% confluence in DMEM:F12 (50:50) supplemented with 10% FBS, 2 mM GLUTAMAX™ and 40 μg/ml hygromycin. Cells were incubated in a 5% CO2 humidified incubator at 37° C. for 24 h. Following the incubation, the cells were trypsinized (0.05% Gibco 15400-54 in PBS) then diluted to 4×10^5 cells/ml in DMEM:F12 (50:50) supplemented with 10% FBS, 2 mM GLUTAMAX™. 20,000 cells were loaded into individual wells of white microtest 96-well optilux plates (catalog no. 353947) and incubated for ˜24 h. Each well was transfected using FUGENE® HD with Wnt1-pCDNA3.2 (5 ng/well) or Wnt3a-pCDNA3.2 (25 ng/well) then grown for 24 h. […]
Luciferase response in all assays was then measured with Promega's DUAL-GLO® kit according to the manufacturer's instructions, except using half the volume of each reagent. Firefly luminescence and Renilla luminescence were measured on a Perkin Elmer ENVISION™ Multilabel Reader. The ratios of firefly luminescence: Renilla luminescence were calculated and normalized to the ratio in control cells expressing or treated with the indicated Wnt protein. […] Statistical significance was determined using the Holm-Sidak method, with alpha=5.000%.

Compound | effect of F8Y mutation on affinity/potency (hVEGF-A (8-109)) | solubility (Solubility) [µg/mL] | selectivity for Wnt1 over Wnt3a signaling [1] [fold]
CC[C@H](C)[C@H](NC(=O)[C@@H]1CSSC[C@H](NC(=O)CN)C(=O)N[C@@H](CC(N)=O)C(=O)N[C@@H]([C@@H](C)CC)C(=O)N[C@@H](CCSC)C(=O)N[C@@H](CC(C)C)C(=O)N2CCC[C@H]2C(=O)N[C@@H](Cc2ccc(O)cc2)C(=O)N[C@@H](Cc2c[nH]c3ccccc23)C(=O)NCC(=O)N[C@H]2CSSC[C@H](NC(=O)[C@H](CCC(=O)O)NC(=O)[C@H](Cc3ccccc3)NC(=O)[C@H](CC(=O)O)NC(=O)[C@H](CCCNC(=N)N)NC(=O)CNC2=O)C(=O)N[C@@H](CCSC)C(=O)N[C@@H](CCC(=O)O)C(=O)N[C@@H](CCC(N)=O)C(=O)N1)C(=O)N[C@H]1CSSC[C@@H](C(=O)NCC(=O)O)NC(=O)[C@H](CO)NC(=O)[C@H](CCC(N)=O)NC(=O)[C@H](Cc2ccc(O)cc2)NC(=O)[C@H](Cc2ccc(O)cc2)NC(=O)[C@H](CCC(N)=O)NC1=O [VEGF_CKP9.54.90.67.F8Y] | modest improvement | ~2000 (≈ 572 µM) | 
R19: LRP6 E1E2-binding EETI-II variant generated in soluble folded form (GCSNRVKVRACKQDSDCLAGCVCGPNGFCG; ends and bridges not checked; also: three disulfides, pairing not given here) |  |  | 11
